Data as given in US9120787B2, “HIV replication inhibitors” (priority 2011, dated 2015).
Like-named read-outs stand apart in the source and are kept apart here.

What was measured:
HIV-1Ba-L [1] = experiment: Inhibition of virus replication in MAGI-CCR5 cells (β-galactosidase reporter); assay type: cell-based; conditions: HIV-1Ba-L in MAGI-CCR5 cells
In short: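 HeLa-derived MAGI-CCR5 cells (high CD4/CCR5, HIV-1 LTR-driven β-galactosidase) plated at 1.0×10^4 cells/well the day before infection with HIV-1Ba-L. Compounds tested at six concentrations in triplicate, with parallel uninfected plates for cytotoxicity.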

MAGI-CCR5 cells = experiment: Cytotoxicity by MTS staining in uninfected MAGI-CCR5 cells; assay type: cell-based; conditions: 48 hours, read-out: TC50 (the source's name)
In short: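 Uninfected MAGI-CCR5 cells (HeLa-CD4-LTR-β-gal derived, expressing CD4/CCR5) plated at 1.0×10^4 cells/well the day before, then exposed to compounds at six concentrations in triplicate alongside parallel infected assays. Viability read by MTS staining.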

HIV-1Ba-L [2] = experiment: HIV-1Ba-L replication in PBMCs (supernatant RT end-point)
In short: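 Pooled PHA-stimulated human PBMCs (5×10^4 cells/well) were infected with HIV-1Ba-L at MOI 0.1 with nine ½-log compound dilutions and cultured seven days at 37° C. Supernatant RT activity was measured by ^3H-TTP incorporation on poly rA:oligo dT (60 minutes, 37° C) and counted by scintillation.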

[3] = test system: peripheral blood mononuclear cells (PBMC); experiment: Cytotoxicity by MTS staining in PBMCs; assay type: cell-based; conditions: read-out: TC50 (the source's name)
Protocol: Cytotoxicity was assessed by MTS staining. At assay end-point, PBMC were stained with the addition of […] of the soluble tetrazolium-based dye MTS to determine cell viability and quantify compound toxicity. The plates were incubated 4 to 6 hrs at 37° C. Following incubation, the activity was assessed by reading absorbance values at 490/650 nm.

HIV-1 K103N, Y181C (A17) = HIV-1 K103N, Y181C (A17) replication in PBMCs; assay type: cell-based; conditions: Virus A17 (K103N, Y181C) in PBMCs
Text: In another embodiment of the present disclosure compounds are provided which inhibit the replication of HIV strains resistant to NNRTIs. Compounds in this disclosure inhibit, A17, an HIV-1 virus with mutations in the RT non-nucleoside binding pocket, K103N and Y181C, in a dose-dependent susceptibility testing manner.
The asparagine variation at residue 103 and the cysteine variation at residue 181 are known to inhibit the activity of the NNRTI's.
Evaluation Dihydropyrimidines vs. HIV-1Ba-L and HIV-1 K103N, Y181C in PBMCs

[4] = Virus Ba-L in PBMCs (Ba-L vs A17 comparison)

## Cc1cn([C@H]2C[C@H](N=[N+]=[N-])[C@@H](CO)O2)c(=O)[nH]c1=O [AZT, reference compound]
HIV-1Ba-L [1]
  TI (TC50/IC50): >36.5
HIV-1Ba-L [1]; 48 hours, β-galactosidase reporter expression, read-out: IC50
  IC50: 80 nM
MAGI-CCR5 cells
  CC50: > 1000 nM
HIV-1Ba-L [2]; HIV-1Ba-L in PBMCs
  TI (TC50/IC50): >54.9
HIV-1Ba-L [2]; HIV-1Ba-L in PBMCs, seven days, RT end-point
  IC50: 20 nM
HIV-1Ba-L [2]; [4]
  IC50: 11 nM
  TI (TC50/IC50): >88.6
[3]; A17 line of the table
  CC50: > 1000 nM
[3]; Ba-L line of the table
  CC50: > 1000 nM
[3]; MTS staining
  CC50: > 1000 nM
HIV-1 K103N, Y181C (A17)
  TI (TC50/IC50): >629.0
HIV-1 K103N, Y181C (A17); read-out: IC50
  IC50: 1.6 nM
